Here are results for eight compounds from PMC5493200 (ACS infectious diseases, 2016).

As usually defined, the pKa is the negative logarithm of the acid dissociation constant.

Series [1] in a line: Maximum tolerated dose / tolerability. It is filed as in vivo, mouse. Particulars: mice; for Maximum tolerated dose (MTD): subcutaneous.
The subject of the next series is M. tuberculosis H37Rv. Description: microbe, parasite or virus in culture. It counts as cell-based, Mycobacterium tuberculosis. Particulars: for H37Rv MIC: Tables 1-4 and text; for MIC (H37Rv): Table 5.
Series [2] has as its system M. tuberculosis H37Rv Rv1258c knockout (KO). Kind of series: microbe, parasite or virus in culture. It counts as cell-based. The following applies: Tables 1-4 and text; 7 days, 7H9 broth.
For series [3], the target named is Purified 70S M. smegmatis bacterial ribosomes (Mycolicibacterium smegmatis, UniProt A0QSG6). Description: Ribosomal translation inhibition. Particulars: inhibits luciferase activity by 50%. It counts as biochemical.
The next series concerns Rv1258c efflux pump. Particulars: H37Rv MIC / Rv1258c KO MIC.
The subject of another series is M. bovis BCG. It is filed as cell-based. Particulars: average of 2–3 replicates, standard deviation in parenthesis.
The nature of series [4]: Microsomal stability, human. It counts as in vitro ADME. Particulars: human liver microsomes. (Liver microsomes are a subcellular fraction often used to study metabolism.)
Series [5] in a line: Microsomal stability, mouse. Particulars: mouse liver microsomes. It is filed as in vitro ADME.
Another series is described as follows: Protein binding, mouse. It counts as in vitro ADME.
The next series can be described thus: Protein binding, human. It is filed as in vitro ADME.
The test system of a further series is HepG2 cells. Description: Mammalian cytotoxicity. It is filed as cell-based.
For series [6] the following is noted: heteroaryl ring of side chain; ref not given; cited from earlier work.
Another series relates to M. tuberculosis Erdman. Description: Mouse model of acute tuberculosis infection. It counts as in vivo. Particulars: 9 days, vs control.
Where [7] appears, read: first new trial (Figure 3B), 200 mg/kg BID, subcutaneous.
The mark [8] stands for this setting: second new trial (Figure 3C), 200 mg/kg BID, subcutaneous.

Some results are limits rather than exact numbers.

Purified 70S M. smegmatis bacterial ribosomes, sequence (A0QSG6 whole entry): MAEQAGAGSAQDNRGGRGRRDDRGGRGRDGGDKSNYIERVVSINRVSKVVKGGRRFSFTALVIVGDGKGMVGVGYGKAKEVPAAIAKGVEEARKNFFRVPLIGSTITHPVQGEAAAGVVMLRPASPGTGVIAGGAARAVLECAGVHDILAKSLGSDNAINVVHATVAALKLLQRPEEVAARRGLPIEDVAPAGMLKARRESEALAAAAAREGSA

Take `Br.Br.Br.CNC1C(O)C(NC)C2OC3(O)C(NC(=O)Cc4nc5ccccc5s4)CC(C)OC3OC2C1O` [Compound 25, 3′-Dihydro-3′-deoxy-3′(R)-(benzo[d]thiazol-2-yl)acetylamino spectinomycin trihydrobroride]: in series [1], the “Maximum tolerated dose (MTD)” value is “mild toxicity noted when dosage exceeded 100 mg/kg”. Besides, the “H37Rv MIC” value with M. tuberculosis H37Rv was found to be 1.6 µg/mL. Besides, in series [2], the “Rv1258c KO MIC” value was determined as 0.8 µg/mL. Also, the “Ribosome IC50” value in series [3] worked out at 1.09 µg/mL. Besides, in the series with Rv1258c efflux pump, the “Efflux Ratio” value was 2.
As to `Br.Br.Br.CN[C@@H]1[C@H](O)[C@H](NC)[C@H]2O[C@]3(O)[C@H](O[C@@H]2[C@H]1O)O[C@H](C)C[C@H]3NC(=O)Cc1cc(Cl)c(F)cn1` [Compound 49, 3′-Dihydro-3′-deoxy-3′(R)-(4-chloro-5-fluoropyridin-2-yl)acetylamino spectinomycin trihydrobromide], the “Post Antibiotic Effect” value with M. bovis BCG is recorded as 116 (19) h. The “Microsomal stability t1/2 human” value in series [4] was >50 h. Besides, the “Microsomal stability t1/2 mouse” value in series [5] is recorded as >50 h. In “Protein binding, mouse”, this compound displayed a Protein binding mouse of 39.3%. In addition, in the series with M. tuberculosis H37Rv, the “MIC (H37Rv)” value came to 0.8 µg/mL and the “H37Rv MIC” value turned out to be 0.8 µg/mL. Moreover, in series [2], the “Rv1258c KO MIC” value came to 0.8 µg/mL. Moreover, the Protein binding human in “Protein binding, human” is 56.3%. Besides, in the series on HepG2 cells, the “Cytotoxicity (HepG2)” value is >400 µg/mL. The “Ribosome IC50” value in [3] stood at 0.22 µg/mL.
Take `CN[C@@H]1[C@H](O)[C@H](NC)[C@H]2O[C@]3(O)[C@H](O[C@@H]2[C@H]1O)O[C@H](C)C[C@H]3NC(=O)Cc1ncc[nH]1.Cl.Cl.Cl` [Compound 21, 3′-Dihydro-3′-deoxy-3′(R)-(1H-imidazol-2-yl)acetylamino spectinomycin trihydrochloride]: in the series with M. tuberculosis H37Rv, the “H37Rv MIC” value came out at 12.5 µg/mL. In addition, the “Rv1258c KO MIC” value in series [2] worked out at 6.3 µg/mL. The pKa in series [6] is 7.0. For the same compound, the “Ribosome IC50” value in series [3] was 0.56 µg/mL. For the same compound, in the series with Rv1258c efflux pump, the “Efflux Ratio” value is given as 2.
With `Br.Br.Br.CN[C@@H]1[C@H](O)[C@H](NC)[C@H]2O[C@]3(O)[C@H](O[C@@H]2[C@H]1O)O[C@H](C)C[C@H]3NC(=O)Cc1nc2ccccc2[nH]1` [Compound 27, 3′-Dihydro-3′-deoxy-3′(R)-(1H-benzo[d]imidazol-2-yl)acetylamino spectinomycin trihydrobroride], in the series on M. bovis BCG, the “Post Antibiotic Effect” value came out at 137 h. Also, the “Microsomal stability t1/2 human” value in [4] is on record as >50 h. Also, in series [5], the “Microsomal stability t1/2 mouse” value is recorded as >50 h. Moreover, the “Reduction of bacterial load in lungs” value in the series with M. tuberculosis Erdman (setting [7]) is recorded as 1.6 logs. The same compound gave a Protein binding mouse in the series “Protein binding, mouse” of 12.1%. For the same compound, in the series on M. tuberculosis H37Rv, the “MIC (H37Rv)” value came to 1.6 µg/mL and the “H37Rv MIC” value was found to be 1.6 µg/mL. Besides, the “Rv1258c KO MIC” value in [2] is 1.6 µg/mL. In addition, the Protein binding human in “Protein binding, human” is reported as 26.3%. In series [6], the pKa is reported as 5.6. For the same compound, in the series with HepG2 cells, the “Cytotoxicity (HepG2)” value was >400 µg/mL. Moreover, the “Ribosome IC50” value in [3] stood at 0.26 µg/mL. Besides, the “Efflux Ratio” value with Rv1258c efflux pump is recorded as 1.
In the case of `CN[C@@H]1[C@H](O)[C@H](NC)[C@H]2O[C@]3(O)[C@H](O[C@@H]2[C@H]1O)O[C@H](C)C[C@H]3NC(=O)Cc1ccc(OC(F)(F)F)cn1.Cl.Cl.Cl` [Compound 41, 3′-Dihydro-3′-deoxy-3′(R)-(5-(trifluoromethoxy)pyridin-2-yl)acetylamino spectinomycin trihydrochloride], in the series on M. bovis BCG, the “Post Antibiotic Effect” value is reported as 61 (17) h. Moreover, the “Microsomal stability t1/2 human” value in [4] came to 22.4 h. The “Microsomal stability t1/2 mouse” value in [5] turned out to be 27.0 h. The “Reduction of bacterial load in lungs” value with M. tuberculosis Erdman (second new trial (Figure 3C), 100 mg/kg) is given as 1.1 log. The Protein binding mouse in “Protein binding, mouse” is on record as 58.4%. Also, in series [1] (efficacy trial dosing (Table S3)), the Well tolerated dosing came to 100 mg/kg. In the series on M. tuberculosis H37Rv, the “MIC (H37Rv)” value was determined as 3.1 µg/mL and the “H37Rv MIC” value was determined as 3.1 µg/mL. The “Rv1258c KO MIC” value in series [2] turned out to be 0.8 µg/mL. This compound showed a Protein binding human in “Protein binding, human” of 51.4%. Moreover, in the series on HepG2 cells, the “Cytotoxicity (HepG2)” value was >400 µg/mL. Besides, in series [3], the “Ribosome IC50” value worked out at 0.96 µg/mL. Further, the “Efflux Ratio” value with Rv1258c efflux pump was 4.
For the compound `Br.Br.Br.CN[C@@H]1[C@H](O)[C@H](NC)[C@H]2O[C@]3(O)[C@H](O[C@@H]2[C@H]1O)O[C@H](C)C[C@H]3NC(=O)Cc1ccc(OC)cn1` [Compound 38, 3′-Dihydro-3′-deoxy-3′(R)-(5-methoxypyridin-2-yl)acetylamino spectinomycin trihydrobromide], the “Post Antibiotic Effect” value in the series on M. bovis BCG is reported as 56 (12) h. Further, the “Microsomal stability t1/2 human” value in [4] stood at 3.4 h. Also, the “Microsomal stability t1/2 mouse” value in series [5] is recorded as 4.8 h. In the series on M. tuberculosis Erdman (setting [8]), the “Reduction of bacterial load in lungs” value amounted to 1.6 log. In addition, the Protein binding mouse in “Protein binding, mouse” was found to be 57.3%. For the same compound, in the series with M. tuberculosis H37Rv, the “MIC (H37Rv)” value was determined as 3.1 µg/mL and the “H37Rv MIC” value amounted to 3.1 µg/mL. In addition, the “Rv1258c KO MIC” value in series [2] turned out to be 6.3 µg/mL. In “Protein binding, human”, the Protein binding human worked out at 51.4%. Further, the “Cytotoxicity (HepG2)” value in the series with HepG2 cells is >400 µg/mL. Besides, the “Ribosome IC50” value in series [3] was found to be 0.39 µg/mL. Besides, the “Efflux Ratio” value with Rv1258c efflux pump was found to be 0.5.
Take `CN[C@@H]1[C@H](O)[C@H](NC)[C@H]2O[C@]3(O)[C@H](O[C@@H]2[C@H]1O)O[C@H](C)C[C@H]3NC(=O)Cc1ccc(O)cn1.Cl.Cl.Cl` [Compound 39, 3′-Dihydro-3′-deoxy-3′(R)-(5-hydroxypyridin-2-yl)acetylamino spectinomycin trihydrochloride]: the “Post Antibiotic Effect” value with M. bovis BCG is on record as 20 (18) h. The “Microsomal stability t1/2 human” value in [4] turned out to be 7.4 h. In addition, the “Microsomal stability t1/2 mouse” value in series [5] came out at 13.4 h. The “Reduction of bacterial load in lungs” value with M. tuberculosis Erdman (setting [8]) came to 1.5 log. The compound further showed a Protein binding mouse in “Protein binding, mouse” of 30.7%. Further, in series [1], the “Maximum tolerated dose (MTD)” value is given as > 400 mg/kg. In the series with M. tuberculosis H37Rv, the “MIC (H37Rv)” value came out at 1.6 µg/mL and the “H37Rv MIC” value turned out to be 1.6 µg/mL. The “Rv1258c KO MIC” value in series [2] was 3.1 µg/mL. In the series “Protein binding, human”, this compound yielded a Protein binding human of 35.1%. In addition, the “Cytotoxicity (HepG2)” value with HepG2 cells is >400 µg/mL. In [3], the “Ribosome IC50” value was 0.84 µg/mL. Moreover, in the series with Rv1258c efflux pump, the “Efflux Ratio” value stood at 0.5.
`Br.Br.Br.CN[C@@H]1[C@H](O)[C@H](NC)[C@H]2O[C@]3(O)[C@H](O[C@@H]2[C@H]1O)O[C@H](C)C[C@H]3NC(=O)Cc1nccc(Cl)c1C` [Compound 46, 3′-Dihydro-3′-deoxy-3′(R)-(4-chloro-3-methylpyridin-2-yl)acetylamino spectinomycin trihydrobromide]: the “Microsomal stability t1/2 human” value in series [4] is on record as >50 h. Further, the “Microsomal stability t1/2 mouse” value in series [5] is given as >50 h. In addition, the “Reduction of bacterial load in lungs” value in the series with M. tuberculosis Erdman (setting [7]) was “least reduction in bacterial loads”. Also, the Protein binding mouse in “Protein binding, mouse” came out at 36.4%. In the series with M. tuberculosis H37Rv, the “MIC (H37Rv)” value came out at 3.1 µg/mL and the “H37Rv MIC” value came to 3.1 µg/mL. Also, the “Rv1258c KO MIC” value in [2] worked out at 1.6 µg/mL. Further, the Protein binding human in the series “Protein binding, human” was 46.6%. Also, the “Cytotoxicity (HepG2)” value in the series on HepG2 cells was >400 µg/mL. Further, the “Ribosome IC50” value in series [3] is 0.59 µg/mL. For the same compound, the “Efflux Ratio” value in the series on Rv1258c efflux pump stood at 2.
